Data from patent publication US4369312A, “Method of producing oxo-containing azetidinone compounds” (Fujisawa Pharmaceutical Co., Ltd., priority 1980, dated 1983).
≈ marks a conversion by molar mass, not a printed value. Read-outs that look alike come from different tables or passages of the source.

Legend:
Assay in all cases: In vitro antimicrobial activity, two-fold agar-plate dilution method (MIC)
Assay type in all cases: cell-based
[1] = test system: Bacillus subtilis ATCC 6633; details: 37° C., 20 hours
Procedure: (§1) In vitro Antimicrobial activity was determined by the two-fold agar-plate dilution method as described below.
(§2) One loopful of an overnight culture of each test strain in Tripticase-soy broth (approximately 10^8 viable cells per ml) was streaked on heart infusion agar (HI-agar) containing graded concentrations of antimicrobial agents, and the minimal inhibitory concentration (MIC) was expressed in term of μg/ml after incubation at 37° C. for 20 hours.

Escherichia coli 31 = details: HI-agar, 37° C., 20 hours
Procedure: as §1, §2

[2] = test system: Staphylococcus aureus 209P JC-1; details: HI-agar, 37° C., 20 hours
Procedure: as §1, §2

[3] = ATCC6633, HI-agar, read-out: MIC

MIC ([1]; HI-agar) [mg/L] | MIC (Escherichia coli 31) [mg/L] | MIC [2] [mg/L] | MIC [1, 3] [mg/L] | MIC (Escherichia coli 31; read-out: MIC) [mg/L] | MIC ([2]; read-out: MIC) [mg/L] | Compound
0.78 (≈ 1.78 µM) | 1.56 (≈ 3.57 µM) | 3.13 (≈ 7.15 µM) |  |  |  | CC(=O)OCC1=C(C(=O)OC(c2ccccc2)c2ccccc2)N2C(=O)C(=O)C2SC1 (stereo not drawn) [Example 2(3), benzhydryl 7-oxocephalosporanate]
 |  |  | 0.78 | 6.25 | 6.25 | CON(C(=O)Cc1cccs1)[C@@H]1C(=O)N2C(C(=O)O)=C(COC(C)=O)CS[C@H]12 [Test compound 1, Sodium 7-[N-methoxy-2-(2-thienyl)acetamido]cephalosporanate]
 |  |  | 3.13 (≈ 6.68 µM) | 6.25 (≈ 13.3 µM) | 6.25 (≈ 13.3 µM) | Cn1nnnc1SCC1=C(C(=O)O)N2C(=O)[C@@H](N(O)C(=O)Cc3cccs3)[C@H]2SC1 [Test compound 3, 7-[N-Hydroxy-2-(2-thienyl)acetamido]-3-(1-methyl-1H-tetrazol-5-ylthiomethyl)-3-cephem-4-carboxylic acid]
